IC50 data for 1 compound are collected here from US9096593B2, “Compounds and methods for kinase modulation, and indications therefor” (Plexxikon Inc., priority 2009, dated 2015).

The subject of this assay is Osteoclast precursor cells. Put plainly: Osteoclast differentiation assay (acid phosphatase readout). It counts as cell-based. The note with it: RANKL and M-CSF. As for the experimental part:
Further, an osteoclast differentiation assay is used to assess the efficacy of Fms inhibitors for treating bone disease such as osteoarthritis. On day 0, Osteoclast Medium BulletKit (Lonza catalog #PT-8001, containing Media, FBS, L-Glutamine, PenStrep, RANKL, and M-CSF) media is thawed and the FBS, L-glutamine and PenStrep from the kit is added to 100 mL of Osteoclast Precursor Basal medium to provide the Osteoclast Precursor Growth Medium (OPGM). This is warmed to 37° C. Osteoclast precursor cells (Lonza catalog #2T-110) frozen in cryovial are warmed to 37° C. and transferred to a 50 mL conical tube. The cryovial is rinsed with OPGM and added dropwise to the conical tube of cells with swirling, then the volume is adjusted to 20-30 mL with addition of OPGM. The cells are centrifuged at 200×g for 15 minutes at room temperature and all but approximately 3 mL of supernatant is removed to a new conical tube. The cells are suspended in the remaining supernatant and the volume is adjusted to 10-15 mL with OPGM added dropwise with swirling. […] The cells are resuspended in the remaining supernatant, counted, and the volume adjusted with an appropriate amount of OPGM to provide approximately 1×10^5 cells/mL. […] The absorbance of each well is read at 405 nm on Safire plate reader. The absorbance reading is plotted vs. concentration to provide the IC50 for each compound.

Some results are limits rather than exact numbers.

For orientation: IC50 means the point on the concentration scale where inhibition reaches its midpoint. As to `Clc1cnc2[nH]cc(Cc3ccc(NCc4ccc(Cl)nc4)nc3)c2c1` [Compound P-2003], the 50% inhibitory concentration (IC50) is less than 100 nM.
